Results taken from PMC13500670, “The U1 snRNP protein U1C and Helix H of U1 snRNA are critical for small molecule splicing modulator function” (Nature Communications, 2026).

What was measured:
[1] = molecular target: T1, native U1 snRNP + SMN2 5' ss oligo (Homo sapiens, UniProt P09234); assay: FP: native U1 snRNP binding to SMN2 5' ss oligo with DMSO or compound; details: Fig. 1B; 10 μM branaplam
T1 construct: we added a large excess of full-length U1C (800 nM) expressed in and purified from E. coli; endogenous in cells; host or cells: HeLa-S3 with CRISPR knock-in of a C-terminal HTP tag on U1A; the added U1C came from E. coli
Experimental: (§1) We engineered a protein A-tag on U1A in HeLa cells using CRISPR-Cas9 and purified native U1 snRNP using the protein A tag and IgG resin (Supplementary Fig. 1A). […] Since U1C is weakly associated with U1 snRNP and may fall off at low U1 snRNP concentrations, we added a large excess of full-length U1C (800 nM) expressed in and purified from E. coli in all binding reactions unless otherwise stated.
(§2) U1A-HTP cells were adapted to grow in suspension in Joklik’s MEM (Sigma) supplemented with 5% (v/v) newborn calf serum and 1× Pluronic™ F-68 (Gibco). […]
(§3) All of 5′-FAM labeled RNA oligos used in this study were synthesized and purified by IDT (USA). Fluorescence polarization (FP) assays were performed in binding buffer (20 mM HEPES pH 7.5, 1 mM MgCl2, 200 mM KCl, 0.01% TritonX-100, 0.1%PEG3350, 2%DMSO) at room temperature using a Envision HTS Plate Reader system (Revvity). […] The equilibrium dissociation constants (Kd) of binding reaction were calculated using the following single-site binding model formula in GraphPad Prism: y=START+(END−START)x/kD+x where x and y represent the concentration of U1 snRNP (or U1 snRNA) and the polarization value measured respectively, START represents the polarization value of protein-free nucleic acid probe, END represents the maximum polarization value when U1 snRNP (or U1 snRNA) binds to the fluorescently labeled 5′ ss oligo. […]

[2] = molecular target: T2, native U1 snRNP + HTT 5' ss oligo (Homo sapiens, UniProt P09234); assay: FP: native U1 snRNP binding to HTT 5' ss oligo; details: Fig. 1C; 10 μM branaplam
T2 construct: we added a large excess of full-length U1C (800 nM) expressed in and purified from E. coli; endogenous in cells; host or cells: HeLa-S3 with CRISPR knock-in of a C-terminal HTP tag on U1A; the added U1C came from E. coli
Experimental: as §1, §2, §3

[3] = tested on: 5' end of U1 snRNA + HTT 5' ss oligo with -1A deleted; assay: FP: 5' end of U1 snRNA + HTT 5' ss oligo with -1A deleted (Supplementary Fig. 5D); assay type: binding, human
Experimental: (§4) To ensure the presence of a −1A bulge in the RNA duplex, we extended the U1 snRNA to nucleotide 1–16 and generated an artificial HTT 5′ ss oligo that added 4 additional nucleotides upstream of the −4C nucleotide to ensure stable base pairing upstream of the potential −1A bulge.
as §3

[4] = tested on: full length U1 snRNA + HTT 5' ss oligo with -1A deleted; assay: FP: full-length U1 snRNA + HTT 5' ss oligo with -1A deleted (Supplementary Fig. 5E); assay type: binding, human
Experimental: as §4, §3

[5] = tested on: U1 snRNA nucleotide 1-16 + artificial HTT 5' ss oligo; assay: FP: U1 snRNA nucleotide 1-16 + artificial HTT 5' ss oligo with -1A bulge (Supplementary Fig. 5F); assay type: binding, human
Experimental: as §4, §3

[6] = tested on: SMN2 pre-mRNA + native or reconstituted U1 snRNP; assay: Pull-down of native or reconstituted U1 snRNP by immobilized SMN2 pre-mRNA; assay type: binding, human; details: Fig. 1F; 50 μM Branaplam vs 0.5% DMSO
Text: In this assay, we immobilized Minx (as a positive control with a canonical 5′ ss) or SMN2 pre-mRNA containing the weak 5′ ss of exon 7 on amylose resin, pulled down either native or reconstituted U1 snRNP, and analyzed the RNAs in the pulldown samples as a surrogate of the amount of U1 snRNP bound to the pre-mRNA.
The SMN2 pre-mRNA fragment used in pull down experiment contains 100 nt up and downstream of the 5′ ss of SMN2 intron 7 followed by three copies of MS2 tag. It was cloned downstream of a T7 promoter in the Sp72 vector. The SMN2 pre-mRNA was in vitro transcribed and purified by 7 M Urea denaturing gel.
The complex was then incubated with amylose resin and washed with the same buffer. The resins were treated in 5 μl buffer containing 1 mg/ml proteinase K at 37 °C for 30 min to release the RNAs. The resulting samples were run on 6% denaturing polyacrylamide gel and stained with Sybr Gold to visualize the RNAs.

[7] = tested on: SMN2 exon 7 skipping, HEK293T cells; assay: SMN2 splicing minigene reporter assay (luciferase); assay type: cell-based; details: Homo sapiens, HEK-293T, Fig. 3A, 36 h, 0.012 to 9 µM
Experimental: Exon 7 inclusion places the GLuc gene out of frame, thereby reducing luciferase activity. […] Transfection was performed in 10 cm dishes using Lipofectamine 2000 (Thermo, #11668019) according to the manufacturer’s protocol. […] Compounds were dispensed in duplicate across a 1:3 serial dilution series ranging from 0.012 to 9 µM. Following a 36 h incubation at 37 °C, luciferase activity was assessed by adding 12 µL of a custom luciferase reagent to each well. The luciferase reagent (12 mL total volume) consisted of 60 µL 50× coelenterazine substrate (Nanolight, #320), 3 mL Nanolight GLuc buffer, 30 µL 10% Triton X-100 (Thermo, #A16046.AP), and 8.9 mL deionized water. Plates were shaken at 600 rpm for 6 min, and luminescence was measured using a Cytation 5 multimode plate reader (BioTek). Half-maximal effective concentration (EC50) values were calculated using GraphPad Prism (v10.4) with four-parameter nonlinear regression curve fitting.

[8] = tested on: cassette exon / GA/GU iExon inclusion, HEK293 cells, scr siRNA; assay: RNA-seq splicing analysis, compound dose response, scrambled (mock) siRNA; assay type: cell-based, human
Text: (§5) Skipped exons are highly enriched for noncanonical 5′ ss sequences (on either the intronic or exonic side), which account for 90% of skipped exons (Supplementary Fig. 8C). For example, among skipped exons with a canonical exonic 5′ ss sequence, 74% contain noncanonical intron sequence. These observations are consistent with the previous published role for U1C stabilization of the U1 snRNA-pre-mRNA duplex at the 5′ ss[25]–[28]. […] We will refer to these as class I exons for clarity in later discussion.
(§6) We next examined the effect of U1C knockdown on compound-mediated splicing. […] We next used the complete dose response to calculate the effective concentration at which deltaPSIcompound-DMSO is 30 (EC-dPSI30).
(§7) HEK293T cells were grown in DMEM media with 10% FBS. 500,000 cells in 1.75 mL of media were plated into a 6-well plate for approximately 6 h. Either siRNA negative control (ThermoFisher Silencer^TM Negative control #2, AM4613) or U1C siRNA (ThermoFisher Silencer^TM Select Pre-designed siRNA, S13225) were transfected for a final concentration of 25 nM using Invitrogen Lipofectamine RNAiMax (13778-150). In brief, 10 μL 5 μM siRNA was added to 115 μL of OptiMEM, while 5 μL Lipofectamine added to 120 μL OptiMEM for 5 minu before mixing the solutions and incubating for 20 min. 250 μL of Lipofectamine:siRNA solution was gentle added to the 1.75 mL cells. After 24 h post-transfection, cells were treated with 10 μL compound resuspended in DMSO. […] Each compound-treated experimental condition was treated and collected in duplicate, while four DMSO only treated samples per siRNA transfection were collected. RNA was isolated using KingFisher^TM Apex instrument and the MagMAX™ mirVana™ Total RNA Isolation Kit (A27828) by Thermo Fisher according to manufacturer’s protocol. Isolated RNA was submitted to Admera Health for library preparation (polyA selected, stranded) and mRNA-sequencing and >20 M 150 bp pair-end reads were returned.
RNAseq and splicing analysis were described earlier using DEDseq (https:// github.com/liwc01/DEDSeq[18]) with minor modifications. RNA sequencing reads were mapped to human genome (hg19) using STAR (version 2.7.10b); only uniquely mapped reads (with MAPQ > 10) with <5 nt/100 nt mismatches and properly paired reads were used. For splicing analysis, all junction reads (read with a gap in alignment indicating splicing) were used, including the ones mapped to unannotated splice sites. Reads were counted for different exons (for cassette exon [CE]) or exonic regions (for A5′ss or A3′ss). For each splicing event, a percent-spliced-in (PSI) value was calculated using the percent of average read number supporting the inclusion among all reads supporting either the inclusion or the exclusion. A minimum of 10 for the denominator of PSI calculation was required. Otherwise, a “NA” value would be generated. PSI values for biological replicates were averaged, and the PSI difference between the two treatment groups was calculated. For a statistical test, a 2 × 2 read counts table was made for each event, with rows for reads supporting inclusion or exclusion, and columns for the two comparing sample groups. Fisher’s exact test was used for the statistical tests. For biological replicates, each pair of the testing and control sample was analyzed by Fisher’s exact test and the geometric mean of all P-values was reported as a final P-value. PSI change (deltaPSI) of >10% (or < −10%) and P < 0.001 was used to select splicing events being regulated by the treatment. PSI calculation, Fisher’s exact test were performed using R (4.0.5). 5′ ss composition analysis was performed as described in ref. [25]. Potency of splicing modulator was determined by plotting dPSI and identifying the concentration at which the change in PSI reached 30% and reported as EC_dPSI30.

[9] = tested on: cassette exon / GA/GU iExon inclusion, HEK293 cells, U1C KD; assay: RNA-seq splicing analysis, compound dose response, U1C knockdown; assay type: cell-based, human
Text: as §5, §6, §7
RNAseq and splicing analysis were described earlier using DEDseq (https:// github.com/liwc01/DEDSeq[18]) with minor modifications. RNA sequencing reads were mapped to human genome (hg19) using STAR (version 2.7.10b); only uniquely mapped reads (with MAPQ > 10) with <5 nt/100 nt mismatches and properly paired reads were used. For splicing analysis, all junction reads (read with a gap in alignment indicating splicing) were used, including the ones mapped to unannotated splice sites. Reads were counted for different exons (for cassette exon [CE]) or exonic regions (for A5′ss or A3′ss). For each splicing event, a percent-spliced-in (PSI) value was calculated using the percent of average read number supporting the inclusion among all reads supporting either the inclusion or the exclusion. A minimum of 10 for the denominator of PSI calculation was required. Otherwise, a “NA” value would be generated. PSI values for biological replicates were averaged, and the PSI difference between the two treatment groups was calculated. For a statistical test, a 2 × 2 read counts table was made for each event, with rows for reads supporting inclusion or exclusion, and columns for the two comparing sample groups. […] For biological replicates, each pair of the testing and control sample was analyzed by Fisher’s exact test and the geometric mean of all P-values was reported as a final P-value. […] Potency of splicing modulator was determined by plotting dPSI and identifying the concentration at which the change in PSI reached 30% and reported as EC_dPSI30.

[10] = tested on: c12orf4 iExon 1a, DENND4A, SCO1, DPH1 iExon inclusion; assay: End-point RT-PCR of iExon inclusion, scr control versus U1C KD; assay type: cell-based, human; details: c12orf4 iExon 1a and DENND4A; 3uM, 1uM, 250nm, 100nM
Experimental: A total of 500,000 SH-SY5Y cells were plated in 6-well tissue culture plates. After 4 h of recovery, cells were transfected with final 100 nM siRNA (silencer select s13212 or negative control No.2 from Ambion) using Lipofectamin RNAi Max (ThermoFisher) according to the manufacturer’s protocol. After 24 h incubation, cells were treated with splicing modulating compounds for additional 24 h. Cells were lysed in RLT buffer ( + beta-mercaptoethanol) and RNA was extracted using the RNeasy kit (Qiagen) according to the manufacturer’s protocol.
Knockdown was confirmed by RT-qPCR using TaqMan assays (Hs00863364_gH, Hs02758991_g1, from ThermoFisher). Splicing changes were confirmed by endpoint PCR using the primer sets listed in Supplementary Table 1. Relative amounts of U1C RNA were calculated for control knockdown vs. U1C knockdown (normalized to GAPDH expression level).
HEK293 cells were transfected for siRNA in 6-well plates, similarly as for RNA-sequencing above. […] Overexpression of 1.5 μg pMEV-2HA-EV or pMEV-U1C-2HA was carried out with Lipofectamine3000 (L3000008) 6 h later. RNA was harvested 24 h later, extracted as above, and reverse transcribed with a Qiagen QuantiTect RT kit (205311). […]

[11] = tested on: splicing events in human SH-SY5Y cells; details: 24 nM (approximately 2 times the IC50 for HTT), 24 h; cited from earlier work

- increase of binding affinity by compound versus DMSO [1]: about twofold
- increase of binding affinity by compound versus DMSO [2]: about twofold
- effect of compound on binding [3]: not improved
- effect of compound on binding [4]: not improved
- effect of compound on binding affinity [5]: no effect
- effect of U1C knockdown on compound potency by end-point PCR [10]: reduces
Structure (SMILES): CC1(C)CC(Oc2ccc(-c3ccc(-c4cn[nH]c4)cc3O)nn2)CC(C)(C)N1 [Branaplam, branaplam]
- amount of native or reconstituted U1 snRNP pulled down by SMN2 pre-mRNA [6]: significantly increased
- EC50 [7]: 59.6 nM
- PSI of CMSS1 iExon ([8]; 5nM branaplam): 6
- PSI of WNK4 iExon ([8]; 5nM branaplam): 6.7
- PSI of PDXDC1 iExon ([8]; 5nM, mock, DMSO baseline […]): 2.9 PSI
- geomean pEC_dPSI30 for all GA/GU iExons ([8]; Fig. 8C, mock knockdown, -log10 of compound concentration when dPSI achieves 30%): 6.61
- number of exons with GA/GU 5' ss significantly induced with deltaPSI compound-DMSO >10 ([8]; highest concentration of branaplam): approximately 1200
- saturation PSI of PDXDC1 iExon ([8]; highest dose, mock and U1C KD reach similar saturation): ~50
- PSI of PDXDC1 iExon ([9]; 5nM, U1C KD, DMSO baseline […]): 2.6 PSI
- U1CKD Log10 effect ([9]; Fig. 8C picture, pEC-dPSI30 mock versus U1C KD): -0.51
- geomean pEC_dPSI30 for all GA/GU iExons ([9]; Fig. 8C, U1C KD): 6.10
- number of splicing events affected [11]: 165
